Read-outs that look alike come from different tables or passages of the source.
Columns and labels:
[1] = target: T1, JAK2 JH2 WT (V536-D812) [W659A, W777A, F794H solubilizing mutations] (Homo sapiens, UniProt O60674, F794H/W659A/W777A); experiment: Surface Plasmon Resonance (SPR) binding assay, JAK2 JH2 domain
T1 construct: **JAK2 JH2 WT (V536-D812) [W659A, W777A, F794H solubilizing mutations]; C-thrombin-avi-His6; thrombin cleavage site (C); His6 (C); purchased Biortus
In short: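 Kinetics came from 1:1 fits of single-cycle runs at 20 °C: four 3-fold dilutions from 5 uM for JH1 or 500 nM for JH2, 60 s association, and 300 s or 1200 s dissociation respectively. Protein was freshly captured per compound in the presence of 10 uM stabilizer compound, with running buffer of pH 7.5 HEPES/NaCl/glycerol/DTT plus 2% DMSO.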

[2] = tested on: TF1 JAK2 V617F STAT3 reporter; experiment: Cellular TF1 STAT3 assay (luciferase reporter), JAK2 V617F; type: cell-based; conditions: read-out: Cell PD-TF1 JAK2 V617F STAT3 (IC50)
In short: (§1)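 Measured in TF1 cells with mutant JAK2 V617F and STAT-responsive luciferase: 18-20 h compound exposure at 37 °C, then ONE-glo luminescence.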

[3] = tested on: TF1 JAK2 V617F STAT5 reporter; experiment: Cellular TF1 STAT5 assay (luciferase reporter), JAK2 V617F; type: cell-based; conditions: read-out: Cell PD TF1 V617F STAT5 (IC50)
In short: as §1

[4] = Homo sapiens, TF-1, TF1 cells, JAK2 V617F

T1 sequence (O60674 536-812 W659A/W777A/F794H): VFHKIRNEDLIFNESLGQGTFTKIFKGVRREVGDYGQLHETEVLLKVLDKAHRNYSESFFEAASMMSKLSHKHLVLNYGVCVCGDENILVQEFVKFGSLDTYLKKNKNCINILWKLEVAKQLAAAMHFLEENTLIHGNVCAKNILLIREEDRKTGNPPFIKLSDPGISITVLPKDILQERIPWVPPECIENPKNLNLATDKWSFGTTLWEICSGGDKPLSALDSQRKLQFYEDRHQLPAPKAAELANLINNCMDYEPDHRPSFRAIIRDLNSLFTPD

Kd ([1]; SPR, JAK2 JH2 domain)	IC50 ([2]; TF1 JAK2 V617F)	IC50 ([3]; TF1 JAK2 V617F)	Kd [1]	IC50 [2, 4]	IC50 [3, 4]	SMILES
0.01 to 10 nM	500 to 5000 nM	500 to 5000 nM				CNC(=O)c1nnc(NC(=O)C2CC2)cc1Nc1cccc(-c2cn(C3CN(Cc4cccc(C#N)n4)C3)nc2C)c1OC [Compound 185]
50 to 500 nM	5000 to 100000 nM	5000 to 100000 nM				CNC(=O)c1nnc(NC(=O)C2CC2)cc1Nc1ccc(C)c(-c2cc(C3CCN(Cc4cc(C#N)ccn4)CC3)n(C)n2)c1OC [Compound 186]
50 to 500 nM	5000 to 100000 nM	5000 to 100000 nM				CNC(=O)c1nnc(NC(=O)C2CC2)cc1Nc1cccc(-c2cc(C3CN(Cc4cnn(C)c4)C3)n(C)n2)c1OC [Compound 187]
0.01 to 10 nM	500 to 5000 nM	500 to 5000 nM				CNC(=O)c1nnc(NC(=O)C2CC2)cc1Nc1cccc(-c2ccc(C(=O)N(C)Cc3cncc(C#N)c3)nc2)c1OC [Compound 188]
10 to 50 nM	5000 to 100000 nM	5000 to 100000 nM				CNC(=O)c1nnc(NC(=O)C2CC2)cc1Nc1cccc(-c2cc(C3CN(Cc4ccccn4)C3)nn2C)c1OC [Compound 189]
0.01 to 10 nM	500 to 5000 nM	500 to 5000 nM				CNC(=O)c1cnc(NC(=O)C2CC2)cc1Nc1cccc(-c2cnn(C3CN(Cc4ccccn4)C3)c2)c1OC [Compound 190]
10 to 50 nM	5000 to 100000 nM	5000 to 100000 nM				CNC(=O)c1nnc(NC(=O)C2CC2)cc1Nc1cccc(-c2cc(C3CN(Cc4cccc(C#N)n4)C3)nn2C)c1OC [Compound 191]
0.01 to 10 nM	500 to 5000 nM	500 to 5000 nM				CNC(=O)c1nnc(NC(=O)C2CC2)cc1Nc1cccc(-c2ccc(C(=O)N(C)Cc3cnsc3)nc2)c1OC [Compound 195]
			0.01 to 10 nM	500 to 5000 nM	500 to 5000 nM	CNC(=O)c1nnc(NC(=O)C2CC2)cc1Nc1cccc(-c2ccc(C(=O)N3CCc4cccnc4CC3)nc2)c1OC [Compound 196]
			0.01 to 10 nM	50 to 500 nM	50 to 500 nM	CNC(=O)c1nnc(NC(=O)C2CC2)cc1Nc1cccc(-c2ccc(C(=O)N(C)Cc3c(C)nn(C)c3Cl)nc2)c1OC [Compound 197]
			0.01 to 10 nM	50 to 500 nM	50 to 500 nM	CNC(=O)c1nnc(NC(=O)C2CC2)cc1Nc1cccc(-c2ccc(C(=O)N(C)Cc3cn(C)nc3C(C)C)nc2)c1OC [Compound 198]
			0.01 to 10 nM	50 to 500 nM	50 to 500 nM	CNC(=O)c1nnc(NC(=O)C2CC2)cc1Nc1cccc(-c2ccc(C(=O)N(C)Cc3csc(C(C)C)n3)nc2)c1OC [Compound 199]
			0.01 to 10 nM	50 to 500 nM	50 to 500 nM	CNC(=O)c1nnc(NC(=O)C2CC2)cc1Nc1cccc(-c2cnn(C3CN(Cc4cccc(C(F)(F)F)n4)C3)c2)c1OC [Compound 200]
			0.01 to 10 nM	50 to 500 nM	50 to 500 nM	CNC(=O)c1nnc(NC(=O)C2CC2)cc1Nc1cccc(-c2cnn(C3CN(Cc4cccc(Br)n4)C3)c2)c1OC [Compound 201]
			50 to 500 nM	5000 to 100000 nM	5000 to 100000 nM	CNC(=O)c1nnc(NC(=O)C2CC2)cc1Nc1cccc(-c2cc(C3CN(Cc4cccc(C#N)n4)C3)n(C)n2)c1OC [Compound 202]
			50 to 500 nM	5000 to 100000 nM	5000 to 100000 nM	CNC(=O)c1nnc(NC(=O)C2CC2)cc1Nc1cccc(-c2cc(C3CN(Cc4ccccn4)C3)n(C)n2)c1OC [Compound 203]
			0.01 to 10 nM	500 to 5000 nM	500 to 5000 nM	COc1c(Nc2cc(NC(=O)C3CC3)nn3cc(C)nc23)cccc1-c1cnn(C2CN(Cc3ccccn3)C2)c1 [Compound 204]
			0.01 to 10 nM	50 to 500 nM	50 to 500 nM	CNC(=O)c1nnc(NC(=O)C2CC2)cc1Nc1ccc(Cl)c(-c2ccc(C(=O)N(C)Cc3cc(C#N)n(C)n3)nc2)c1OC [Compound 205]
			0.01 to 10 nM	5000 to 100000 nM	500 to 5000 nM	CNC(=O)c1nnc(NC(=O)C2CC2)cc1Nc1cccc(-c2ccc(C(=O)N(C)Cc3scnc3C)nc2)c1OC [Compound 210]
			0.01 to 10 nM	5000 to 100000 nM	500 to 5000 nM	CNC(=O)c1nnc(NC(=O)C2CC2)cc1Nc1cccc(-c2ccc(C(=O)N(C)Cc3cnc(C)s3)nc2)c1OC [Compound 211]
			0.01 to 10 nM	50 to 500 nM	50 to 500 nM	CNC(=O)c1nnc(NC(=O)C2CC2)cc1Nc1cccc(-c2cnn(C3CN(Cc4cccnc4C#N)C3)c2)c1OC [Compound 212]
			0.01 to 10 nM	500 to 5000 nM	500 to 5000 nM	CNC(=O)c1nnc(NC(=O)C2CC2)cc1Nc1cccc(-c2cnn(C3CN(Cc4cn(C)nc4C)C3)c2)c1OC [Compound 213]

Kd ([1]; SPR, JAK2 JH2 domain)	IC50 ([2]; TF1 JAK2 V617F)	IC50 ([3]; TF1 JAK2 V617F)	Kd [1]	IC50 [2, 4]	IC50 [3, 4]	SMILES
			0.01 to 10 nM	50 to 500 nM	50 to 500 nM	CNC(=O)c1nnc(NC(=O)C2CC2)cc1Nc1cccc(-c2cnn(C3CN(Cc4cccc(COC)n4)C3)c2)c1OC [Compound 216]
			0.01 to 10 nM	500 to 5000 nM	500 to 5000 nM	CNC(=O)c1nnc(NC(=O)C2CC2)cc1Nc1ccc(Cl)c(-c2ccc(C(=O)N(C)Cc3cc(C#N)ccn3)cc2)c1OC [Compound 217]
			0.01 to 10 nM	50 to 500 nM	500 to 5000 nM	CNC(=O)c1nnc(NC(=O)C2CC2)cc1Nc1nccc(-c2cnn(C3CN(Cc4ccccn4)C3)c2)c1OC [Compound 218]
			0.01 to 10 nM	500 to 5000 nM	500 to 5000 nM	COc1c(Nc2cc(NC(=O)C3CC3)nn3cc(C)nc23)cccc1-c1ccc(C(=O)N(C)Cc2cc(C#N)ccn2)nc1 [Compound 219]
			0.01 to 10 nM	50 to 500 nM	50 to 500 nM	CNC(=O)c1nnc(NC(=O)C2CC2)cc1Nc1cccc(-c2ccc(C(=O)N(C)Cc3cn(C)nc3C)cc2)c1OC [Compound 221]
			0.01 to 10 nM	50 to 500 nM	50 to 500 nM	CNC(=O)c1nnc(NC(=O)C2CC2)cc1Nc1cccc(-c2ccc(C(=O)N(C)Cc3cn(C)nc3C(F)F)nc2)c1OC [Compound 222]
			0.01 to 10 nM	500 to 5000 nM	50 to 500 nM	CNC(=O)c1nnc(NC(=O)C2CC2)cc1Nc1ccc(Cl)c(-c2ccc(C(=O)N(C)Cc3ccn(C)n3)nc2)c1OC [Compound 223]
			0.01 to 10 nM	5000 to 100000 nM	5000 to 100000 nM	CNC(=O)c1nnc(NC(=O)C2CC2)cc1Nc1cccc(-c2ncn(C3CN(Cc4ccccn4)C3)n2)c1OC [Compound 224]
			0.01 to 10 nM	50 to 500 nM	50 to 500 nM	CNC(=O)c1nnc(NC(=O)C2CC2)cc1Nc1cccc(-c2cnn(C3CN(Cc4cccc(CO)n4)C3)c2)c1OC [Compound 228]
			0.01 to 10 nM	500 to 5000 nM	500 to 5000 nM	CNC(=O)c1nnc(NC(=O)C2CC2)cc1Nc1cccc(-c2cnn(C3CN(C(=O)c4ccccn4)C3)c2)c1OC [Compound 229]
			0.01 to 10 nM	50 to 500 nM	50 to 500 nM	CNC(=O)c1nnc(NC(=O)C2CC2)cc1Nc1ccc(C)c(-c2cnc(C(=O)N(C)Cc3cn(C)nc3C)c(F)c2)c1OC [Compound 230]
			0.01 to 10 nM	500 to 5000 nM	500 to 5000 nM	COc1c(Nc2cc(NC(=O)C3CC3)nn3cc(C)nc23)cccc1-c1ccc(C(=O)N(C)Cc2cn(C)nc2C)nc1 [Compound 231]
			10 to 50 nM	5000 to 100000 nM	5000 to 100000 nM	CNC(=O)c1nnc(NC(=O)C2CC2)cc1Nc1cccc(-c2cnn(C3CN(Cc4cccc(C#N)n4)C3)c2)c1 [Compound 232]
			0.01 to 10 nM	50 to 500 nM	500 to 5000 nM	CNC(=O)c1nnc(NC(=O)C2CC2)cc1Nc1nccc(-c2ccc(C(=O)N(C)Cc3cc(C#N)ccn3)nc2)c1OC [Compound 240]
			0.01 to 10 nM	50 to 500 nM	50 to 500 nM	CNC(=O)c1nnc(NC(=O)C2CC2)cc1Nc1cccc(-c2cnn(C3CN(Cc4cccc(C#CC5CC5)n4)C3)c2)c1OC [Compound 241]
			0.01 to 10 nM	50 to 500 nM	50 to 500 nM	CNC(=O)c1nnc(NC(=O)C2CC2)cc1Nc1cccc(-c2cnn(C3CN(Cc4cccc(N)n4)C3)c2)c1OC [Compound 242]
			0.01 to 10 nM	50 to 500 nM	50 to 500 nM	CNC(=O)c1nnc(NC(=O)C2CC2)cc1Nc1cccc(-c2cnn(C3CN(Cc4cccc(OC(F)F)n4)C3)c2)c1OC [Compound 243]
			0.01 to 10 nM	50 to 500 nM	50 to 500 nM	CNC(=O)c1nnc(NC(=O)C2CC2)cc1Nc1cccc(-c2ccc(C(=O)N(C)Cc3ncc(COC)s3)nc2)c1OC [Compound 244]
			0.01 to 10 nM	50 to 500 nM	50 to 500 nM	CNC(=O)c1nnc(NC(=O)C2CC2)cc1Nc1cccc(-c2cnn(C3CN(Cc4cccc5ncnn45)C3)c2)c1OC [Compound 248]
			10 to 50 nM	5000 to 100000 nM	5000 to 100000 nM	CNC(=O)c1nnc(NC(=O)C2CC2)cc1Nc1cccc(-c2cnn(C3CN(Cc4ccc(C#N)cn4)C3)c2)c1OC [Compound 249]
			0.01 to 10 nM	50 to 500 nM	50 to 500 nM	CNC(=O)c1nnc(NC(=O)C2CC2)cc1Nc1cccc(-c2cnn(C3CN(Cc4cc(Cl)ccn4)C3)c2)c1OC [Compound 250]

Reference: patent publication US20240368122A1, “JAK2 INHIBITORS AND METHODS OF USE THEREOF” (RELAY THERAPEUTICS, INC., priority 2021, published 2024)
